One assay deals with T1, 5HT1A-receptors (Bos taurus, UniProt F6Q2H9).
T1 construct: from tissue
T1 sequence (F6Q2H9 1-422): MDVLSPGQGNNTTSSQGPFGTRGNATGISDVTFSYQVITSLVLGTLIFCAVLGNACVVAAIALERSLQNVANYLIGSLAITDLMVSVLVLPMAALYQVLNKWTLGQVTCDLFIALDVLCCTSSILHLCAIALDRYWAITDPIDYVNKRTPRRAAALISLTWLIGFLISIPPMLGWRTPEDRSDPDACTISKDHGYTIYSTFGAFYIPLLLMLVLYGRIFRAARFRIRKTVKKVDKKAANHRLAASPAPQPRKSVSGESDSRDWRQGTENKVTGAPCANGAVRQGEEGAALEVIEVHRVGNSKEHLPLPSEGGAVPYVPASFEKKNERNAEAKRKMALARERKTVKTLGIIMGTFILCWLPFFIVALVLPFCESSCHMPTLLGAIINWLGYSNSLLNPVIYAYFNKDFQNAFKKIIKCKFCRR
Kind of assay: Affinity for 5HT1A-receptors (Test 2, Peroutka binding assay).

Another assay deals with T2, 5HT2-receptors (Rattus norvegicus, UniProt P14842).
T2 construct: from tissue
Kind of assay: Affinity for 5HT2-receptors (Test 1, 3H-ketanserin binding, Leysen et al.). Conditions: 3H-ketanserin as ligand. On the procedure: Test 1. Affinity for 5HT2-receptors
The binding assay was carried out essentially as described by Leysen et al., (Mol. Pharmcol. 21, 301-314, 1982) using 3 H-kezanserine as ligand.

Where a name gives a salt, the structure may show the parent alone.

The term Ki denotes a dissociation constant, usually derived from enzyme kinetics or from competition with a known ligand. A lower Ki goes with tighter binding.

T2 sequence (P14842 whole entry): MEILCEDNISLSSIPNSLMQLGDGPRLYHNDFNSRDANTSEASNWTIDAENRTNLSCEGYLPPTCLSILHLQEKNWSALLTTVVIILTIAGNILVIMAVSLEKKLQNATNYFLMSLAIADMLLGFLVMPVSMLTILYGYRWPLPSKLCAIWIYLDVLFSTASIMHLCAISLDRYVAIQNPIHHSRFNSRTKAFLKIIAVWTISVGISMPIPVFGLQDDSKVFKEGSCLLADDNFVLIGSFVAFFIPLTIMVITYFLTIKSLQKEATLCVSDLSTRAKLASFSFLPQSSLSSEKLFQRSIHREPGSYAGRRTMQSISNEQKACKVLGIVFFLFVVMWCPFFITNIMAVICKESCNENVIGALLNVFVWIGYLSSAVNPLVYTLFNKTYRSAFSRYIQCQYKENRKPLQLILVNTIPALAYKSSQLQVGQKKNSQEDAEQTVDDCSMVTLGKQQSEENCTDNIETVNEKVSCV

Turning to `CCOC(=O)c1cccnc1N1CCN(CCCC(c2ccc(F)cc2)c2ccc(F)cc2)CC1` [2:1, 3-Pyridinecarboxylic acid (2-(4-(4,4-bis(4-fluorophenyl)butyl)-1-piperazinyl-)ethyl ester hydrochloride], the Ki at 5HT1A-receptors was 1.2 nM; on 5HT2-receptors, 5.7 nM.
For the compound `COC(=O)c1cccnc1N1CCN(CCCC(c2ccc(F)cc2)c2ccc(F)cc2)CC1` [2:4, 1-[4,4 -Bis(p-fluorophenyl)butyl]-4-(3-methoxycarbonyl-2-pyridyl)-piperazine, hydrochloride], the Ki turned out to be 0.7 nM at 5HT1A-receptors and 4 nM at 5HT2-receptors.
In the case of `CC(C)CCOC(=O)c1cccnc1N1CCN(CCCC(c2ccc(F)cc2)c2ccc(F)cc2)CC1` [2:7, 1-[4,4-Bis(p-fluorophenyl)butyl]-4-(3-isoamyloxycarbonyl-2-pyridyl)-piperazine, hydrochloride], the values for the Ki at 5HT1A-receptors and on 5HT2-receptors were 14 nM and 2.7 nM, respectively.
In turn, `O=C(OCc1ccccn1)c1cccnc1N1CCN(CCCC(c2ccc(F)cc2)c2ccc(F)cc2)CC1` [2:10, 1-[4,4-Bis(p-fluorophenyl)butyl]-4-[3-(2-pyridinylmethoxycarbonyl)-2-pyridyl]-piperazine, hydrochloride] yielded a Ki on 5HT2-receptors of 0.6 nM.

Values taken from patent publication US5658910A, “Nicotinic acid esters” (Pharmacia AB, priority 1992, dated 1997).
